Source: patent publication US11203600B2 (Denali Therapeutics Inc., priority 2017, dated 2021)

Biological target: GST-hRIPK1 (8-327) (Homo sapiens (Human), UniProt Q13546)
Assay: Fluorescent Polarization Binding (FP Binding) assay, RIPK1
Settings: 10 nM GST-hRIPK1 (8-327), 5 nM fluorescent-labeled ligand, RT, 30 min, mean of at least two independent experiments
How it was run: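 Binding by fluorescence polarisation at RT: 10 nM baculovirus-expressed GST-hRIPK1 (8-327) and 5 nM fluorescent ligand, 30 min, in 50 mM HEPES pH 7.5, 50 mM MgCl2, 0.02% CHAPS, 1% DMSO. FP read at ex 531/em 595 nm. IC50 from normalised percent inhibition, mean of ≥2 experiments.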

Sequence of GST-hRIPK1 (8-327) (Q13546 8-327): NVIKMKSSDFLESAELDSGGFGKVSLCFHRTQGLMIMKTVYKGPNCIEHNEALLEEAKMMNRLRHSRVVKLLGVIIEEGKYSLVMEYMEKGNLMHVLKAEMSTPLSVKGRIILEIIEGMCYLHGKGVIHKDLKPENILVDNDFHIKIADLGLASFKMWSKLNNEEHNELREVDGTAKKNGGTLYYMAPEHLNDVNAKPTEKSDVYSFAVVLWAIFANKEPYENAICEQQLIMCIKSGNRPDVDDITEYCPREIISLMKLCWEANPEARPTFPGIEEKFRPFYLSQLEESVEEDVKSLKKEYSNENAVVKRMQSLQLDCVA

SMILES | IC50 [nM]
COc1ccnc(N2CCC(F)(C(=O)N3CCOc4c(C#N)cncc4C3)CC2)n1 [Example 103, 4-[4-fluoro-1-(4-methoxypyrimidin-2-yl)piperidine-4-carbonyl]-3,5-dihydro-2H-pyrido[3,4-f][1,4]oxazepine-9-carbonitrile] | 0.1 to 100
C[C@@H]1COc2c(C#N)cncc2CN1C(=O)C1CCN(c2ncc(F)cn2)CC1 [Example 104, (3R)-4-(1-(5-fluoropyrimidin-2-yl)piperidine-4-carbonyl)-3-methyl-2,3,4,5-tetrahydropyrido[3,4-f][1,4]oxazepine-9-carbonitrile] | 0.1 to 100
COC1(C(=O)N2Cc3cncc(C#N)c3OC[C@H]2C)CCN(c2ncc(F)cn2)CC1 [Example 105, (3R)-4-[1-(5-fluoropyrimidin-2-yl)-4-methoxy-piperidine-4-carbonyl]-3-methyl-3,5-dihydro-2H-pyrido[3,4-f][1,4]oxazepine-9-carbonitrile] | 0.1 to 100
N#Cc1cncc2c1OCCN(C(=O)C1(F)CCN(c3nccn4ccnc34)CC1)C2 [Example 106, 4-(4-fluoro-1-imidazo[1,2-a]pyrazin-8-yl-piperidine-4-carbonyl)-3,5-dihydro-2H-pyrido[3,4-f][1,4]oxazepine-9-carbonitrile] | 100 to 1000
Cn1ncc2cnc(N3CCC(F)(C(=O)N4CCOc5c(C#N)cncc5C4)CC3)cc21 [Example 107, 4-[4-fluoro-1-(1-methylpyrazolo[4,3-c]pyridin-6-yl)piperidine-4-carbonyl]-3,5-dihydro-2H-pyrido[3,4-f][1,4]oxazepine-9-carbonitrile] | 100 to 1000
Cn1ccc2nc(N3CCC(F)(C(=O)N4CCOc5c(C#N)cncc5C4)CC3)ncc21 [Example 108, 4-[4-fluoro-1-(5-methylpyrrolo[3,2-d]pyrimidin-2-yl)piperidine-4-carbonyl]-3,5-dihydro-2H-pyrido[3,4-f][1,4]oxazepine-9-carbonitrile] | 100 to 1000
N#Cc1cncc2c1OCCN(C(=O)C1(F)CCN(c3ccc4nccn4n3)CC1)C2 [Example 109, 4-(4-fluoro-1-imidazo[1,2-b]pyridazin-6-yl-piperidine-4-carbonyl)-3,5-dihydro-2H-pyrido[3,4-f][1,4]oxazepine-9-carbonitrile] | 100 to 1000
N#Cc1cncc2c1OCCN(C(=O)C1(F)CCN(c3ccnc4ccnn34)CC1)C2 [Example 110, 4-(4-fluoro-1-(pyrazolo[1,5-a]pyrimidin-7-yl)piperidine-4-carbonyl)-2,3,4,5-tetrahydropyrido[3,4-f][1,4]oxazepine-9-carbonitrile] | 0.1 to 100
N#Cc1cncc2c1OCCN(C(=O)C1(F)CCN(c3ncc4c(n3)CCC4)CC1)C2 [Example 111, 4-[1-(6,7-dihydro-5H-cyclopenta[d]pyrimidin-2-yl)-4-fluoro-piperidine-4-carbonyl]-3,5-dihydro-2H-pyrido[3,4-f][1,4]oxazepine-9-carbonitrile] | 100 to 1000
N#Cc1cncc2c1OCCN(C(=O)C1(F)CCN(c3ncncc3F)CC1)C2 [Example 112, 4-(4-fluoro-1-(5-fluoropyrimidin-4-yl)piperidine-4-carbonyl)-2,3,4,5-tetrahydropyrido[3,4-f][1,4]oxazepine-9-carbonitrile] | 100 to 1000
N#Cc1cncc2c1OCCN(C(=O)C1(F)CCN(c3ncccc3F)CC1)C2 [Example 113, 4-[4-fluoro-1-(3-fluoro-2-pyridyl)piperidine-4-carbonyl]-3,5-dihydro-2H-pyrido[3,4-f][1,4]oxazepine-9-carbonitrile] | 100 to 1000
COc1ncc(F)c(N2CCC(F)(C(=O)N3CCOc4c(C#N)cncc4C3)CC2)n1 [Example 114, 4-[4-fluoro-1-(5-fluoro-2-methoxy-pyrimidin-4-yl)piperidine-4-carbonyl]-3,5-dihydro-2H-pyrido[3,4-f][1,4]oxazepine-9-carbonitrile] | 0.1 to 100
COc1ccc(N2CCC(F)(C(=O)N3CCOc4c(C#N)cncc4C3)CC2)nn1 [Example 115, 4-[4-fluoro-1-(6-methoxypyridazin-3-yl)piperidine-4-carbonyl]-3,5-dihydro-2H-pyrido[3,4-f][1,4]oxazepine-9-carbonitrile] | 100 to 1000
N#Cc1cncc2c1OCCN(C(=O)C1(F)CCN(c3cccnn3)CC1)C2 [Example 116, 4-(4-fluoro-1-pyridazin-3-yl-piperidine-4-carbonyl)-3,5-dihydro-2H-pyrido[3,4-f][1,4]oxazepine-9-carbonitrile] | 100 to 1000
COc1ccnc(N2CCC(C(=O)N3CCOc4c(C#N)cncc4C3)CC2)n1 [Example 117, 4-[1-(4-methoxypyrimidin-2-yl)piperidine-4-carbonyl]-3,5-dihydro-2H-pyrido[3,4-f][1,4]oxazepine-9-carbonitrile] | 0.1 to 100
COc1nc(N2CCC(C(=O)N3CCOc4c(C#N)cncc4C3)CC2)ncc1F [Example 118, 4-[1-(5-fluoro-4-methoxy-pyrimidin-2-yl)piperidine-4-carbonyl]-3,5-dihydro-2H-pyrido[3,4-f][1,4]oxazepine-9-carbonitrile] | 0.1 to 100
COc1ccnc(N2CCC(C(=O)N3Cc4cncc(C#N)c4OC[C@H]3C)CC2)n1 [Example 119, (3R)-4-(1-(4-methoxypyrimidin-2-yl)piperidine-4-carbonyl)-3-methyl-2,3,4,5-tetrahydropyrido[3,4-f][1,4]oxazepine-9-carbonitrile] | 0.1 to 100
COc1nc(N2CCC(C(=O)N3Cc4cncc(C#N)c4OC[C@H]3C)CC2)ncc1F [Example 120, (3R)-4-(1-(5-fluoro-4-methoxypyrimidin-2-yl)piperidine-4-carbonyl)-3-methyl-2,3,4,5-tetrahydropyrido[3,4-f][1,4]oxazepine-9-carbonitrile] | 0.1 to 100
COC1(C(=O)N2CCOc3c(F)cncc3C2)CCN(c2ncc(F)cn2)CC1 [Example 121] | 0.1 to 100
COc1nc(N2CCC(OC)(C(=O)N3CCOc4c(F)cncc4C3)CC2)ncc1F [Example 122, (9-fluoro-3,5-dihydro-2H-pyrido[3,4-f][1,4]oxazepin-4-yl)-[1-(5-fluoro-4-methoxy-pyrimidin-2-yl)-4-methoxy-4-piperidyl]methanone] | 0.1 to 100
CNc1nc(N2CCC(F)(C(=O)N3CCOc4c(C#N)cncc4C3)CC2)ncc1F [Example 123, 4-[4-fluoro-1-[5-fluoro-4-(methylamino)pyrimidin-2-yl]piperidine-4-carbonyl]-3,5-dihydro-2H-pyrido[3,4-f][1,4]oxazepine-9-carbonitrile] | 100 to 1000
N#Cc1cncc2c1OCCN(C(=O)C1(F)CCN(c3ncc(F)c(NC4CC4)n3)CC1)C2 [Example 124, 4-[1-[4-(cyclopropylamino)-5-fluoro-pyrimidin-2-yl]-4-fluoro-piperidine-4-carbonyl]-3,5-dihydro-2H-pyrido[3,4-f][1,4]oxazepine-9-carbonitrile] | 0.1 to 100
N#Cc1cncc2c1OCCN(C(=O)C1(F)CCN(c3ncc(F)c(OCC(F)F)n3)CC1)C2 [Example 125, 4-[1-[4-(2,2-difluoroethoxy)-5-fluoro-pyrimidin-2-yl]-4-fluoro-piperidine-4-carbonyl]-3,5-dihydro-2H-pyrido[3,4-f][1,4]oxazepine-9-carbonitrile] | 0.1 to 100
CSc1nc(N2CCC(F)(C(=O)N3CCOc4c(C#N)cncc4C3)CC2)ncc1F [Example 126, 4-[4-fluoro-1-(5-fluoro-4-methylsulfanyl-pyrimidin-2-yl)piperidine-4-carbonyl]-3,5-dihydro-2H-pyrido[3,4-f][1,4]oxazepine-9-carbonitrile] | 0.1 to 100
